The values below come from patent US20110071198A1 (priority 2008, published 2011).

For data set [1] the following is noted: literature; cited from earlier work.
The next data set deals with cPLA2. The class given is cell-based. The settings on record: pretreatment of cells.
For data set [2] the following is noted: i.p. 10, 50 or 100 mg/kg; wild-type C57BL/6, β-arrestin1-deficient and β-arrestin2-deficient mice. The method, then:
(§1) FIG. 7. […] Animal use and protocols. All animal studies were reviewed and approved by the Duke University Internal Animal Care and Use Committee. […] Age- and weight-matched male mice over 12 weeks of age were used in all experiments. […] The animals were euthanized 30 minutes later. Serum was collected and stored at −80° C. […] After 10 minutes, the mice were placed under an LDPI laser Doppler (PeriScan PIM II; Perimed). The right ear was everted to expose the anterior/ventral surface. The laser Doppler was focused on the central portion of the ventral ear. Data were collected using the repeated data collection mode with a 5-mm×5-mm image size, a 10-second delay, and high-resolution scan. […] Readings were continually recorded for 30 minutes. As a control, each animal was subsequently treated with 4 mg/kg PGD2 dissolved in PBS.

Data set [3] can be described thus: Mouse cutaneous flushing assay (laser Doppler perfusion of ventral ear). The settings on record: i.p. 100 mg/kg. The class given is in vivo, mice. How it is done:
FIGS. 8A-8E. […] Animal use and protocols. […] The animals were euthanized 30 minutes later. Serum was collected and stored at −80° C. […] Readings were continually recorded for 30 minutes.

The subject of another data set is peritoneal macrophages. As to conditions: 200 μM, 10 minutes. The method, then: as §1, with “FIGS. 8A-8E. […] Data are mean±SEM for change in perfusion as a function of time. […] (FIG. 8D) Maximum response to PGD2, plotted as mean±SEM (n=15−25 per condition). […] Thioglycollate-elicited peritoneal macrophages were loaded with H3-arachidonic acid (H3-AA) for 24 hours, and then rinsed to remove arachidonic acid not incorporated into cell membrane lipids.” for “FIG. 7.”

Details of data set [4]: species or system mice. The settings on record: mouse, in vivo. How it is done: FIG. 10. […]. Perfusion of the ventral ear in age and weight matched wild-type C57B1/6 mice was measured with laser doppler. […] The first dose was 25 mg/kg, the second dose was 50 mg/kg and the third dose was 100 mg/kg. Wild-type (rechallenge) mice received all three doses of nicotinic acid and wild-type (control) mice received the first dose of nicotinic acid followed by two subsequent doses with vehicle alone. Plotted values represent the mean change in perfusion as a function of time from 8 animals.

The next data set has as its system Langerhans cells. As to conditions: 10 μM for 10 minutes.
In data set [5] the test system is differentiated THP-1 macrophages. As to conditions: 200 μM for 10 minutes; data not shown.
The conditions of data set [6]: nicotinic acid therapy; cited from earlier work.
Data set [7] deals with T1, GPR109A (Homo sapiens, UniProt Q8TDS4).
T1 construct: expressed in transfected cells; plus Zeocin with ICUE2
T1 sequence (Q8TDS4 whole entry, species assumed): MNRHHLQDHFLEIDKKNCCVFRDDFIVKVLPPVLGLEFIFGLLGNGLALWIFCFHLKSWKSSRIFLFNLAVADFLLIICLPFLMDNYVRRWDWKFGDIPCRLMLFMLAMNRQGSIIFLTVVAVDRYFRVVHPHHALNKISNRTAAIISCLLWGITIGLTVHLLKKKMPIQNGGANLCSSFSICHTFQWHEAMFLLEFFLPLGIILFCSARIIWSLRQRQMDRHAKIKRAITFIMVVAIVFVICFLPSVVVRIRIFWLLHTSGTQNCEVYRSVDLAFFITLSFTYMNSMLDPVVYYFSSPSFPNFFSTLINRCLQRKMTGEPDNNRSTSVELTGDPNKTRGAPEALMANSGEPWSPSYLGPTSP
The experiment in a line: ICUE cAMP assay in HEK-293 cells expressing FLAG-GPR109A and ICUE2 biosensor. The class given is cell-based. The method, then: ICUE cAMP assay. […] Experiments were performed on a NOVOstar plate reader (BMG Labtech).
Background: Changes in cAMP serve as a functional read-out for many G protein-coupled receptors.

Data set [8] addresses T1, GPR109A. Nature of the data set: Phosphorylated ERK immunoblotting in HEK-293 cells. The class given is cell-based. The settings on record: GPR109A-expressing cells. In general terms: In western blotting, separated proteins are transferred to a membrane and probed.
Experimental: Total ERK1/2 was detected with anti-MAPK1/2 (diluted 1:3,000; Upstate Biotechnology). […] Anti-rabbit and anti-mouse secondary antibodies for Western blots were obtained from Amersham Biosciences. For immunoprecipitation, cells were treated with serum-free media with and without nicotinic acid. Cells were washed once with PBS at 4° C., harvested by gentle scraping, pelleted, and resuspended in glycerol lysis buffer including protease and phosphatase inhibitors. […] Immunoprecipitation reactions were incubated at 4° C. for 3 hours, washed 3 times with glycerol lysis buffer, and resuspended in SDS running buffer. Samples were subjected to SDS-PAGE analysis and Western blotting with cPLA2 antibody (diluted 1:1,000; Cell Signaling Technology), phosphorylated cPLA2 antibody (diluted 1:1,000; Cell Signaling Technology), M2 antibody (diluted 1:2,000; Sigma-Aldrich), and β-arrestin antibody (diluted 1:1,000; BD Biosciences).

Read-outs that look alike come from different tables or passages of the source.

Experimental for Langerhans cells: Data are mean±SEM of 3 independent experiments.
The plates were transferred on ice, and cells were washed twice with ice-cold PBS and then scraped in PBS containing complete protease inhibitor cocktail (Roche Applied Sciences). Cells were lysed by brief sonication and then centrifuged at 3,000 g for 5 minutes to remove unbroken cells and nuclear fractions. Subsequently, the supernatant was centrifuged at 21,000 g for 30 minutes to separate the membrane fraction (in the pellet) and cytosolic fraction (in the supernatant). The membrane pellet was resuspended in PBS, proteins in the membrane and the cytosolic fractions were measured by Bradford assay, and β-arrestins were detected by Western blot analysis.
Experimental for cPLA2: Agonist-stimulated activation of cPLA2 in the presence of control siRNA, β-arrestin1 siRNA, or control siRNA plus either pertussis toxin or PD98059 (PD). […] (FIG. 6D) Activation or phosphorylation of cPLA2 in siRNA-treated cells. **P=0.0085 versus respective 10-minute value; ***P=0.0047 versus respective 0-minute value. Data are mean±SEM of 3 independent experiments.
Immunoblotting and immunoprecipitation. […] For immunoprecipitation, cells were treated with serum-free media with and without nicotinic acid. Cells were washed once with PBS at 4° C., harvested by gentle scraping, pelleted, and resuspended in glycerol lysis buffer including protease and phosphatase inhibitors. […] Immunoprecipitation reactions were incubated at 4° C. for 3 hours, washed 3 times with glycerol lysis buffer, and resuspended in SDS running buffer. Samples were subjected to SDS-PAGE analysis and Western blotting with cPLA2 antibody (diluted 1:1,000; Cell Signaling Technology), phosphorylated cPLA2 antibody (diluted 1:1,000; Cell Signaling Technology), M2 antibody (diluted 1:2,000; Sigma-Aldrich), and β-arrestin antibody (diluted 1:1,000; BD Biosciences).

Regarding `C1Cc2[nH]nc(-c3nn[nH]n3)c2C1` [MK-0354], in data set [1], the cutaneous flushing entry is “do not induce cutaneous flushing” and the “serum FFAs” value is reported as “decrease serum FFAs”.
As to `COc1cccc(-c2cc(=O)c3ccccc3o2)c1N` [PD98059], in the data set with cPLA2, the “basal level of phosphorylated cPLA2 after pretreatment” value is recorded as “substantially increased”.
As to `O=C(O)c1cccnc1` [nicotinic acid, Nicotinic acid], the “serum FFAs” value in [2] was “significant and essentially identical decreases in FFAs”. The “nicotinic acid-stimulated increase in perfusion in β-arrestin1-deficient mice” value in [3] (versus wild type) is recorded as “dramatically decreased”. Also, the “perfusion of the ventral ear” value in [3] (wild-type and β-arrestin2-deficient mice) is “dramatic increase in perfusion”. The “release of radiolabeled eicosanoids in β-arrestin1-deficient cells” value with peritoneal macrophages (versus wild type) is “significantly reduced”. For the same compound, the “release of radiolabeled eicosanoids” value in the data set on peritoneal macrophages (wild-type and β-arrestin2-deficient macrophages) was “increased”. Moreover, the “tachyphylaxis to cutaneous vasodilation/flushing” value in data set [4] was “rapid tachyphylaxis”. Further, the “recruitment of β-arrestin1 to the membrane of Langerhans cells” value in the data set with Langerhans cells is recorded as “robust recruitment”. The “β-arrestin1 translocation in differentiated THP-1 macrophages” value in data set [5] is “led to β-arrestin1 translocation”. Moreover, the “occurrence of cutaneous vasodilation or flushing side effect” value in data set [6] is ~80 % of patients.
On to pertussis toxin, for which the “MK-0354-induced cAMP decrease, sensitivity to pertussis toxin” value with GPR109A [7] (agonist MK-0354) is given as “sensitive”. In addition, the “nicotinic acid-induced cAMP decrease, sensitivity to pertussis toxin” value with GPR109A [7] (agonist nicotinic acid) is “sensitive”. For the same compound, the “effect on nicotinic acid-stimulated ERK phosphorylation” value with GPR109A [8] is recorded as “all but eliminated”. Moreover, the “basal level of phosphorylated cPLA2 after pretreatment” value with cPLA2 is “substantially increased”.
